Assay results from PubChem BioAssay (NCI).
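These data come from cells grown in 96-well plates and exposed to compound for 48 hours at five concentrations. Here, GI50 denotes the concentration required for 50% inhibition of growth. TGI: concentration producing complete growth inhibition.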

Key:
Assay in all cases: growth of human tumour cells (NCI), 48 h
HCT-116 colon = system: HCT-116 colon
LOX IMVI melanoma = system: LOX IMVI melanoma
M14 melanoma = system: M14 melanoma
MCF7 breast = system: MCF7 breast
NCI-H23 lung = system: NCI-H23 lung
OVCAR-8 ovarian = system: OVCAR-8 ovarian
SF-268 CNS = system: SF-268 CNS
SF-539 CNS = system: SF-539 CNS
SN12C renal = system: SN12C renal
SW-620 colon = system: SW-620 colon

Row | SMILES | TGI (HCT-116 colon) [µM] | TGI (LOX IMVI melanoma) [µM] | TGI (M14 melanoma) [µM] | TGI (MCF7 breast) [µM] | TGI (NCI-H23 lung) [µM] | TGI (OVCAR-8 ovarian) [µM] | TGI (SF-268 CNS) [µM] | TGI (SF-539 CNS) [µM] | TGI (SN12C renal) [µM] | TGI (SW-620 colon) [µM] | GI50 (LOX IMVI melanoma) [µM] | GI50 (NCI-H23 lung) [µM] | GI50 (OVCAR-8 ovarian) [µM] | GI50 (SF-268 CNS) [µM] | GI50 (SF-539 CNS) [µM]
1 | CCOC(=O)/C=C(\C(=O)OCC)n1ccc(=O)n(Cc2cnnn2CCCCOC(C)=O)c1=O | > 45.3 | 17.6 | 38.8 | 18.8 | 18.5 | 13.9 | 34.1 | 5.44 | 45.3 | > 41.1 |  |  |  |  | 
2 | O=[N+]([O-])C(/C=C(\Cl)[N+](=O)[O-])=C1Nc2ccccc2N1 | > 100 | > 100 | > 100 | > 100 | > 100 | > 100 | > 100 | 93.3 | > 100 | > 100 |  |  |  |  | 
3 | COc1cc(-c2nc3ccc(N4CCN(C)CC4)cc3[nH]2)c(OC)c2[nH]c(COC(C)=O)nc12 | > 100 | 96.4 | 35 | > 100 | > 100 | > 100 | > 100 | > 100 | > 100 | > 100 |  |  |  |  | 
4 | CCCCCCCCCCCC(=O)OC[C@H](C[As](=O)(O)O)OC(=O)CCCCCCCCCCC | 21.7 | 23.6 | 10.5 | 21.9 | 21.2 | 27.8 | > 42.5 | 38.6 | 16.4 | 27.4 |  |  |  |  | 
5 | CSc1nc(C)cc(Nc2ccc(O)c(CN3CCOCC3)c2)n1 | > 100 | > 100 | > 100 | > 100 | > 100 | > 100 | > 100 | > 100 | > 100 | > 100 |  |  |  |  | 
6 | NC(N)=NS(=O)(=O)c1ccc(N/N=C2/CCOC2=O)cc1 | > 100 | > 100 | > 100 | > 100 | > 100 | > 100 | > 100 | > 100 | > 100 | > 100 |  |  |  |  | 
7 | COc1cc(CSc2ccc(O)cc2)cc(OC)c1OC | > 100 | > 100 | > 100 | 66.6 | > 100 | > 100 | > 100 | > 100 | > 100 | > 100 |  |  |  |  | 
8 | CCCNC(=S)N/N=C(\C)c1ccc(S(=O)(=O)N(C)c2ccccc2)cc1 | > 100 | > 100 | > 87.4 | > 100 | > 100 | > 100 | 41.8 | 21.7 | > 100 | > 100 |  |  |  |  | 
9 | Cc1nc(SCC(=O)Nc2ccc(Cl)cc2)c2sc(=S)n(-c3ccccc3)c2n1 | > 10 | > 10 | > 10 | > 10 | > 10 | > 10 | > 10 | > 10 | > 10 | > 10 |  |  |  |  | 
10 | COc1cc(C)c(/C=C2/N=C(c3ccccc3)OC2=O)c([N+](=O)[O-])c1OC | > 100 | > 100 | > 100 | > 100 | > 100 | > 100 | > 100 | > 100 | > 100 | > 100 |  |  |  |  | 
11 | CSC1(C)C(=O)Nc2c(OCc3ccccc3)cc([N+](=O)[O-])cc21 (stereo not given) | > 100 | > 100 | > 100 | 44.1 | > 100 | 55.1 | > 100 | > 100 | 34.6 | > 100 |  |  |  |  | 
12 | COc1cc2c(c(OC)c1OC)C(=O)[C@@H]1[C@H]2N1C(=O)NCCCl | > 100 | > 100 | > 100 | > 100 | > 100 | > 100 | > 100 | > 100 | > 100 | > 100 |  |  |  |  | 
13 | COc1cc(C2C3=C(COC3=O)Oc3cc4c(cc32)OCO4)ccc1O (stereo not given) | > 48.3 | > 100 | > 100 | > 100 | > 100 | 29.5 | > 66.4 | 1.03 | > 100 | > 100 |  |  |  |  | 
14 | NS(=O)(=O)c1nnc(NC(=O)C23CC4CC(CC(C4)C2)C3)s1 | > 100 | > 100 | > 100 | > 100 | > 100 | > 100 | > 100 | > 100 | > 100 | > 100 |  |  |  |  | 
15 | OC1c2ccccc2CCC1CN1CCN(CCOC(c2ccc(F)cc2)c2ccc(F)cc2)CC1 (stereo not given) | 20.8 | 27.1 | 27.6 | 30.8 | 32.2 | 28.5 | 39 | 20.1 | 27.3 | 38.2 |  |  |  |  | 
16 | COC(=O)C1CCN(C(=O)OC(C)(C)C)CC1 | > 100 | > 100 | > 100 | > 100 | > 100 | > 100 | > 100 | > 100 | > 100 | > 100 |  |  |  |  | 
17 | COC(=O)/C=C\C(C#N)(C#N)N=Cc1cccc(OC)c1 | 7.14 | > 50.8 | 10.4 | 38.9 | 16.4 | 10.5 | 33.4 | 7.83 | 27.1 | 5.68 |  |  |  |  | 
18 | C1CSCCSCCCSC2CCCCC2SC1 (stereo not given) | > 100 | > 100 | > 100 | > 100 | > 100 | > 100 | > 100 | > 100 | > 100 | > 100 |  |  |  |  | 

Row | SMILES | TGI (HCT-116 colon) [µM] | TGI (LOX IMVI melanoma) [µM] | TGI (M14 melanoma) [µM] | TGI (MCF7 breast) [µM] | TGI (NCI-H23 lung) [µM] | TGI (OVCAR-8 ovarian) [µM] | TGI (SF-268 CNS) [µM] | TGI (SF-539 CNS) [µM] | TGI (SN12C renal) [µM] | TGI (SW-620 colon) [µM] | GI50 (LOX IMVI melanoma) [µM] | GI50 (NCI-H23 lung) [µM] | GI50 (OVCAR-8 ovarian) [µM] | GI50 (SF-268 CNS) [µM] | GI50 (SF-539 CNS) [µM]
19 | COc1ccc([N+](=O)[O-])c2c(NCCCN(C)C)ccnc12 | 22.8 | 31 | 20.8 | > 38.8 | 6.19 | > 48.5 | 28.9 | 17 | 34 | 32.4 |  |  |  |  | 
20 | CSC1NC(c2ccccc2)=C(C#N)C(=O)N1C1OCC(OC(C)=O)C(OC(C)=O)C1OC(C)=O (stereo not given) | > 100 | > 100 | > 100 | > 100 | > 100 | > 100 | > 100 | > 100 | > 100 | > 100 |  |  |  |  | 
21 | CC1(C)[C@@H]2C[C@H]1[C@@H](Cc1cccc(C[C@H]3c4cc(-c5ccccn5)ncc4[C@H]4C[C@@H]3C4(C)C)c1)c1cc(-c3ccccn3)ncc12 | > 47.6 | > 100 | > 100 | > 100 | > 77.4 | > 43.9 | > 100 | > 100 | > 29.9 | > 61.4 |  |  |  |  | 
22 | CC1(c2sccc2Cl)CC(c2sccc2Cl)=C(C#N)C(=C(C#N)C#N)N1 (stereo not given) | 32.2 | 37.8 | 42.7 | 48.5 | 35.9 | 39 | 38.5 | 36.7 | 42.9 | 39 |  |  |  |  | 
23 | CC(O)C1(CNc2cc(Cl)nc(N)n2)CCCCC1 (stereo not given) | > 100 | > 100 | > 100 | > 100 | > 100 | > 100 | > 100 | > 100 | > 100 | > 100 |  |  |  |  | 
24 | COc1ccc(OC)c(NCC(=O)Nn2cnc3ccc(S(=O)(=O)Nc4cc(OC)ccc4OC)cc3c2=O)c1 | > 100 | > 100 | > 100 | > 100 | > 100 | > 100 | > 100 | > 100 | > 100 | > 100 |  |  |  |  | 
25 | O=C(CN(C(=O)OC12CC3CC(CC(C3)C1)C2)C(=O)OC12CC3CC(CC(C3)C1)C2)Oc1ccc([N+](=O)[O-])cc1 | > 100 | > 100 | > 100 | > 100 | > 100 | > 100 | > 100 | > 100 | > 100 | > 100 |  |  |  |  | 
26 | CC1CN=C(NS(=O)(=O)c2cc(C(=O)Nc3ccc(Cl)cc3)c(Cl)cc2S)NN1 (stereo not given) | > 100 | > 100 | 69.5 | > 100 | > 100 | 59.3 | 52.1 | 81.8 | > 100 | > 100 |  |  |  |  | 
27 | Cc1c(C)c(C)c(Cn2[nH]c(=O)n(C)c2=O)c(C)c1C | > 100 | > 100 | > 100 | > 100 | > 100 | > 100 | > 100 | > 100 | > 100 | > 100 |  |  |  |  | 
28 | CCCCCCCCCCCCOP(=O)(O)OP(=O)(O)OCC1OC(n2ccc(N)nc2=O)CC1O (stereo not given) | > 100 | > 100 | > 100 | > 100 | > 100 | > 100 | > 100 | > 100 | > 100 | > 100 |  |  |  |  | 
29 | S=C(N/N=C(\c1ccccc1)c1ccccn1)NC1CCCCC1 | > 100 | 23.6 | > 100 | > 100 | > 100 | 3.44 | > 100 | > 100 | > 100 | > 100 |  |  |  |  | 
30 | CCOC(=O)c1nc2ccc(C(F)(F)F)cc2nc1Nc1cc(OC)c(OC)c(OC)c1 | > 100 | > 100 | > 100 | > 100 | > 100 | > 100 | > 100 | > 100 | > 100 | > 100 |  |  |  |  | 
31 | CCOC(=O)C(NC(=O)c1ccccc1)(Nc1ccc(S(=O)(=O)Nc2ncccn2)cc1)C(F)(F)F (stereo not given) | > 100 | > 100 | > 100 | > 100 | > 100 | > 100 | > 100 | > 100 | > 100 | > 100 |  |  |  |  | 
32 | CC(Oc1ccccc1Cl)C(=O)NN1C(=O)CC(=O)N(c2ccccc2)C1=S (stereo not given) | > 100 | > 100 | > 100 | > 100 | > 100 | > 100 | > 100 | > 100 | > 100 | > 100 |  |  |  |  | 
33 | CN(C)c1ccc(/C=C/c2ccc(S(N)(=O)=O)cc2)cc1 | 67.2 | > 100 | 35.9 | > 100 | 44 | 27.5 | > 100 | 25.6 | 51.1 | 92.9 | 18.7 | 14.2 | 4.95 | 7.16 | 11.7
34 | CCOC(=O)CC(c1ccccc1)C(C)(C(=O)OCC)C(=O)OCC (stereo not given) | > 100 | > 100 | > 100 | > 100 | > 100 | > 100 | > 100 | > 100 | > 100 | > 100 |  |  |  |  | 
35 | COc1ccccc1Cc1ccc(C2C=CC3(CC(=O)C=C3C)C(=O)C2)o1 (stereo not given) | 89.6 | 34.9 | > 100 | 34.4 | 58.3 | 37.1 | 64.9 | 42.9 | 58.5 | 40.7 |  |  |  |  | 
